The results in this text go back to patent US7320967B2, “Cosmetic composition, method of cosmetic treatment and preparation of a composition for promoting the growth and/or preventing or delaying the loss of hair” (L'Oreal, priority 2002, dated 2008).

One assay concerns the target T1, PGFS (Homo sapiens, UniProt P42330, H5Q).
T1 construct: GST (glutathione S-transferase, pGEX 2T) (N, cleaved yes); made in house; host or cells: E. coli BL21DE3
T1 sequence (P42330 1-323 H5Q): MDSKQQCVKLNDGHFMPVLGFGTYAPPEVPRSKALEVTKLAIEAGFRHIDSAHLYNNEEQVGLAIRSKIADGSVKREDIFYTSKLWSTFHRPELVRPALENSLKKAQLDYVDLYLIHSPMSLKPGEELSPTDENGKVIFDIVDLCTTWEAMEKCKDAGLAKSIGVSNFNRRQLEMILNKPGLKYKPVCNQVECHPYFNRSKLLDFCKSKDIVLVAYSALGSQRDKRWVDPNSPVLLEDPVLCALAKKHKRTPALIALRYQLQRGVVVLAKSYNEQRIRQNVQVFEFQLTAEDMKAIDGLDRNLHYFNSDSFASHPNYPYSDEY
The assay can be described thus: PGFS test (maximum reaction rate, optical density at 340 nm). The class given is biochemical. To be noted: for IC50: protocol of Example 3. As to the method: The compounds noted as 15-PGDH inhibitors are then tested for their capacity to inhibit PGF synthase. For that, the following are for example brought into contact: the enzyme PGFS at a final concentration of 25×10^−3 mg/l, its cosubstrate (β-NADPH2) and a substrate (for example phenanthrenequinone) at the concentrations conventionally used for this test as described for example by Suzuki et al. (cDNA cloning, expression and mutagenesis study of liver-type prostaglandin F synthase. J Biol Chem, 1999, 274(1): 241-248), that is to say 100 μM β-NADPH2 and 20 μM phenanthrenequinone. The maximum reaction rate is measured per unit of time at 37° C. The same reaction is carried out but adding the test compound to the medium at the start of the reaction. The maximum enzyme reaction rate with the compound is compared to that of the control with no compound, and the percentage inhibition [100−(Vmax assay×100)/Vmax control] is determined.
The enzyme obtained is at a concentration of 0.5 mg/ml and blocked at −80° C. This suspension is thawed and stored on ice.
Preparation in a brown flask (protection from light) of a 100 mM Tris buffer pH=6.5 containing 20 μM 9,10-phenanthrenequinone* (P2896, Sigma-Aldrich, L'isle D'Abeau Chesne, BP 701, 38297, Saint Quentin Fallavier) and 100 μM β-NADPH (N1630, Sigma-Aldrich, L'isle D'Abeau Chesne, BP 701, 38297, Saint Quentin Fallavier). A stock solution having a titre of 1 mM is prepared in absolute ethanol heated to 40° C., the flask is placed in an ultrasonic tank in order to facilitate the solubilization of the product.
0.950 ml of this buffer (previously heated to 37° C.) is introduced into the cuvette of a spectrophotometer (Perkin-Elmer, Lambda 2) thermostated at 37° C. whose wavelength for measurement is set at 340 nm. 0.05 ml of enzymatic suspension at 37° C. is introduced into the cuvette concomitantly with the recording (reduction in the optical density at 340 nm).
(§1) The maximum reaction rate is recorded.
(§2) The test values (molecules) are compared with the control value (with no molecule), the results are expressed as % of the control value.

For the next assay, the target named is T2, 15-PGDH (Homo sapiens, UniProt P15428).
T2 construct: GST (glutathione S-transferase, pGEX 4T3) (N, cleaved yes); made in house; host or cells: E. coli BL21DE3plys
T2 sequence (P15428 1-266): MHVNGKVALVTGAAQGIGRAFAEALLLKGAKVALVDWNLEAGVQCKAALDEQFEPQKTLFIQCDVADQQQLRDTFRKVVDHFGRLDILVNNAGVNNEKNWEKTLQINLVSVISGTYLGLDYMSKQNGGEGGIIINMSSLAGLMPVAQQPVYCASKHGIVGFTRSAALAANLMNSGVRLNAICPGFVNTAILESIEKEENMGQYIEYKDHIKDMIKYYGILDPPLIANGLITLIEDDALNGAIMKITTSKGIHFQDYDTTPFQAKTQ
In words: 15-PGDH test (maximum reaction rate, optical density at 340 nm). The class given is biochemical. How it is done:
For that, the following are for example brought into contact: the enzyme 15-PGDH at a final concentration of 7×10^−3 mg/ml, its cosubstrate (β-NAD) and a substrate (PGE2) at the concentrations corresponding to the conditions conventionally used for this test as described for example by Cho and Tai (Inhibition of NAD-dependent 15-hydroxyprostaglandin dehydrogenase (15-PGDH) by cyclooxygenase inhibitors and chemopreventive agents. Prostaglandins, Leukotrienes and Essential Fatty Acids, 2002, 67(6): 461-465), for example 1.5 mM β-NAD and 50 μM prostaglandin E2. The rate of the reaction is measured at 37° C. for 1 minute. The same reaction is carried out, but adding the test compound to the medium at the start of the reaction. The maximum enzyme reaction rate per unit of time (Vmax) measured in the presence of the compound is compared to that of the control with no compound, and the percentage inhibition [100−(Vmax assay×100)/Vmax control] is determined.
The enzyme obtained is at the concentration of 0.3 mg/ml and is blocked at −80° C. This suspension is thawed and stored on ice.
Preparation of a 100 mM Tris buffer pH=7.4 containing 0.1 mM dithiothreitol (D5545, Sigma-Aldrich, L'isle D'Abeau Chesne, BP 701, 38297, Saint Quentin Fallavier), 1.5 mM β-NAD (N6522, Sigma-Aldrich, L'isle D'Abeau Chesne, BP 701, 38297, Saint Quentin Fallavier), 50 μM Prostaglandin E2 (P4172, Sigma-Aldrich, L'isle D'Abeau Chesne, BP 701, 38297, Saint Quentin Fallavier).
0.965 ml of this buffer (previously heated to 37° C.) is introduced into a spectrophotometer cuvette (Perkin-Elmer, Lambda 2) thermostated at 37° C., whose wavelength for measurement is set at 340 nm. 0.035 ml of enzymatic suspension at 37° C. are introduced into the cuvette concomitantly with the recording (increase in the optical density at 340 nm).
as §1, §2

The test system of assay [1] is PGF2α secreted by U937 cells. In words: Cellular model: PGF2α secreted by PMA-differentiated, LPS-stimulated U937 cells. In kind it is cell-based. To be noted: 5 μM; U937 + 10 nM PMA, then LPS, 6 h. How it is done:
This makes it possible to evaluate the efficacy of a selective 15-PGDH inhibitor on the protection of prostaglandins in a complex biological system producing the different types of enzyme involved in the metabolism of these molecules. For example, a culture of promonocytes is used, these being precursors of macrophages under certain conditions, a model which is very widespread for studying the metabolism of prostaglandins.
Indeed, the phorbol esters (10 nM PMA) cause within 24 h 00 min the differentiation of the promonocyte line U937 into macrophages; this differentiation is accompanied by the induction of 15-PGDH. (Tong and Tai, Biochim Biophys Acta, 2000; 1497: 61-68).
Moreover, stimulation of these macrophages by LPS (lipopolysaccharide extracted from the bacterial wall) induces (at 100 ng/ml) in 6 h 00 min PGHS-2 (or COX-2), an enzyme responsible (in the same way as COX-1) for the synthesis of PGH2, a precursor (inter alia) via PGFS, of PGF2α (Arias-Negrete et al., 1995. Biochem Biophys Res Commun, 208(2), 582-589).
In a 1st stage, macrophage precursors are cultured in a suitable medium, in the presence of a compound stimulating their differentiation and the induction of 15-PGDH, and then the production of prostaglandins by these cells is stimulated, for example by LPSs in the form of an extract or by purified LPSs; this 2nd stage is performed in the presence or otherwise of the compound to be tested. The concentrations of prostaglandins, in particular of PGF2α, obtained in the presence of the 15-PGDH inhibiting compound to be tested are compared to that of the control containing only the 15-PGDH inducer, it being possible to carry out this measurement by any method known to a person skilled in the art, in particular by immunoenzymatic assay. […]
All the wells will contain the same final quantity of DMSO.
Immediate evaluation of the quantity of PGF2α secreted by the cells (50 μl) under different conditions (molecules or controls) using an immunoenzymatic assay kit (Cayman ref. 516011). […]

Where [2] appears, read: protocol of Example 3, read-out: Inhibition of 15-PGDH at 50 μM.

Read-outs that look alike come from different tables or passages of the source. Where only a bound is given, the exact number is not on record here.

Turning to `O=C(Nc1ncc2c(n1)CC(c1ccccc1Cl)CC2=O)c1ccccc1` (centres unmarked) [Molecule B, N-[7-(2-Chlorophenyl)-5-oxo-5,6,7,8-tetrahydroquinazolin-2-yl]benzamide], the inhibition at 50 µM on PGFS was determined as 10%; on 15-PGDH (read-out: % Inhibition 15-PGDH), 57%.

Turning to `Nc1c(Cl)nc(-c2ccccc2)nc1Cl` [Molecule A, 5-amino-4,6-dichloro-2-phenylpyrimidine], the values for the inhibition at 50 µM against PGFS and on 15-PGDH (read-out: % Inhibition 15-PGDH) were 5% and 43%, respectively.

As to `COc1ccccc1NC(=O)Cn1nnc(-c2ccccc2)n1` [Compound 4, N-(2-methoxyphenyl)-2-(5-phenyl-2H-tetrazol-2-yl)acetamide], the half-inhibitory concentration (IC50) against PGFS was above 75 µM; against 15-PGDH (protocol of Example 3), 55 µM. The “PGF2α secreted, % of the control (LPS control)” value (from here on “PGF2α secreted, % of the control”) in assay [1] was “+6%”. The inhibition at 50 µM on 15-PGDH (setting [2]) was 60%.

Take `O=C(Cc1nnn(-c2ccccc2)n1)c1ccccc1` [Compound 1, 1-phenyl-2-(2-phenyl-2H-tetrazol-5-yl)ethanone]: the IC50 on PGFS is above 75 µM. In addition, the “PGF2α secreted, % of the control” value in assay [1] is “+16%”. The inhibition at 50 µM at 15-PGDH (setting [2]) was found to be 70%.

As to `Cc1ccc(NC(=O)Cn2nnc(-c3cccc(C(F)(F)F)c3)n2)cc1` [Compound R29A, N-(4-methylphenyl)-2-{5-[3-(trifluoromethyl)phenyl]-2H-tetrazol-2-yl}acetamide], the IC50 on PGFS was above 75 µM; on 15-PGDH (protocol of Example 3), 30 µM. Further, the “PGF2α secreted, % of the control” value in assay [1] was “+46%”.
